The source of these data is US11248016B2, “Glycolipids and pharmaceutical compositions thereof for use in therapy” (THE UNIVERSITY OF NOTTINGHAM, priority 2014, dated 2022).

Experiment [1] deals with firefly luciferase translation reporter. The experiment is described as follows: Firefly luciferase translation reporter assay. The format is cell-based, human. An excerpt: Graphs represent 4 biological repetitions per treatment—2 independent treatments of a compound of Formula II.
Graphs represent 4 biological repetitions per treatment. […] No difference is observed between Hippuristanol and Hippuristanol plus a compound of Formula II.
The degree of translation inhibition is shown to be equivalent to that of a known inhibitor of translation, hippuristanol (FIGS. 3b and 5). Comparative structured 5′UTR firefly luciferase reporter experiments conducted using either hippuristanol or a compound of Formula II show the inhibition of reporter levels is equivalent.
Cells were transfected using FuGene 6 (Roche) following the manufacturer's instructions. The activities of firefly and renilla luciferase in lysates prepared from transfected cells were measured using a commercially available Luciferase reporter assay system (Promega) and light emission was measured over a 10 sec interval using a TECAN luminometer. For each experiment described, data was obtained from a minimum of at least 3 biological repetitions per treatment.
(In general: Reporter assays use an easily measured gene product as a stand-in for the process of interest.)

Experiment [2] relates to beta secretases (BACE) 5′UTR. As to the kind of experiment: 5′UTR firefly luciferase reporter assay, BACE. The format is cell-based, human. To be noted: Neuroblastoma cells; FIG. 3d. As to the method: The 5′UTRs of genes which negatively associate with the progression of Alzheimer's disease—amyloid precursor protein (APP) and beta secretases (BACE) are all inhibited by treatment with a compound of Formula II, whereas the equivalent reporter levels of housekeeping genes actin and thioredoxin (TXN) are not inhibited. […] Neuroblastoma cells were transfected 24 hours prior to treatment with a compound of Formula II. After treatment, cells were prepared as described in the materials and methods. Each experiment represents between 6 and 8 biological repetitions.
Experiments conducted using Firefly luciferase reporter plasmids containing the 5′ untranslated regions (UTRs) of the genes amyloid precursor protein (APP), thioredoxin (TXN) were conducted with reagents and materials described by Bottley et al, 2010. Experiments conducted using Firefly luciferase reporter plasmids containing the 5′ UTRs of the genes EGFR, BACE1 and Actin were conducted with reagents and materials described by Webb, 2012 (http://etheses.nottingham.ac.uk/2724/). […]
Cells were transfected using FuGene 6 (Roche) following the manufacturer's instructions. The activities of firefly and renilla luciferase in lysates prepared from transfected cells were measured using a commercially available Luciferase reporter assay system (Promega) and light emission was measured over a 10 sec interval using a TECAN luminometer. […]

The subject of experiment [3] is Cap-dependent (eIF4A dependant) translation. As to the kind of experiment: CrPV assay, cap-dependent translation (firefly luciferase). To be noted: 20 μM, 3 hours treatment, FIG. 12. The format is cell-based. An excerpt:
FIG. 12—CrPV assay—Natural molecule targets eIF4A.
By using a well characterised luciferase based reporter assay it was further determined that this class of molecule functions as a protein synthesis inhibitor via targeting the helicase eIF4A.

Experiment [4] has as its system SKOV3 ovarian cancer cells. The experiment is described as follows: Cell proliferation, SKOV3. The format is cell-based. The conditions noted are these: 96 hours. As to the method:
Growth of SKOV3 cell lines were slowed by the treatment with a compound of Formula II at higher doses. Experiment represents 6 biological repetitions, Error=S.E.M.
Cisplatin™ resistant SKOV-3 ovarian cancer cells were sensitised to treatment with a compound of Formula II in combination with 2.5 μM Cisplatin™ (p=0.003) (right hand bar in the figure), no effect is observed from treatment with equivalent levels of a compound of Formula II alone (left hand bar in the figure) or Cisplatin™ alone.
Prior to treatment cells were cultured to an appropriate confluency in 96 well tissue culture plates (Fisher). Cells remained either supplemented with fresh media or treated with fresh media containing active or an equivalent volume of DMSO (vehicle control). Where used, Cisplatin™ was diluted to a stock concentration in Dimethylformamide (DMF), then handled as per the manufacturer's instructions. To determine relative cell viability, reagents WST-1 (Roche) or MTT (Sigma) were used as per the manufacturer's instructions and absorbance at 450 nm measured using a Victor plate reader (Perkin Elmer).

Experiment [5] concerns SH-SY5Y neuroblastoma cancer cells. The experiment is described as follows: Cell proliferation, SH-SY5Y. The format is cell-based. The conditions noted are these: 96 hours, plus 2.5 μM Cisplatin, higher doses (10 μg) of Formula II.

As to `CC/C=C\C/C=C\C/C=C\CCCCCCCC(=O)OC[C@H](COC1OC(CO)C(O)C(O)C1O)OC(=O)CCCCCCC/C=C\C/C=C\C/C=C\CC` (stereo partly drawn) [Formula II, 1,2-dioctadecatienyl-3-O-β-D-galactosyl-sn-glycerol], the “difference between Hippuristanol and Hippuristanol plus Formula II” value in experiment [1] (Hippuristanol 1 μM, 4 hrs, FIG. 3c) is recorded as “No difference”. Also, the “inhibition of translation reporter” value in experiment [1] (Hippuristanol (1 μM) plus Formula II, 4 hrs, FIG. 3c) is “significant inhibition”. Further, in experiment [1] (neuroblastoma cells, treated 4 hrs, compound alone, FIG. 3b), the “inhibition of translation reporter activity” value is reported as “equivalent to treatment with 1 μM Hippuristanol”. The “firefly luciferase reporter activity, BACE 5′UTR” value in experiment [2] is on record as “inhibited”. Also, the “cap dependant translation (firefly luciferase signal)” value in experiment [3] is “selectively reduces the translation of the firefly luciferase gene”; in experiment [3] (listed as Synthetic version of the natural molecule), “inhibited”. Also, the “growth of SKOV3 cells” value in experiment [4] (Formula II only, at higher doses) was “slowed”. In addition, in experiment [4] (equivalent levels of Formula II alone, FIG. 4f), the “effect on SKOV-3 cells, compound alone” value was “no effect”. In addition, the “sensitisation of SKOV-3 cells to Cisplatin” value in experiment [4] (in combination with 2.5 μM Cisplatin (p=0.003)) is reported as “sensitised”. In addition, the “kill of SH-SY5Y cells in combination with Cisplatin” value in experiment [5] is given as “complete kill”.
